This is an account of results in patent publication US7482329B2, “Single domain TDF-related compounds and analogs thereof” (Thrasos Therapeutics, priority 2002, dated 2009).

Entries after “also recorded” stand apart in the source; their conditions may differ. Where a SMILES comes first, the peptide text is derived from it. A value given as a limit tells only on which side of the number the result lay.

Assay [1] has as its target T1, BMPR-2 receptor extra cellular domain (Homo sapiens, UniProt Q13873).
T1 construct: immobilized BMPR-2 receptor extra cellular domain (ECD)
T1 sequence (Q13873 27-150 limits assumed): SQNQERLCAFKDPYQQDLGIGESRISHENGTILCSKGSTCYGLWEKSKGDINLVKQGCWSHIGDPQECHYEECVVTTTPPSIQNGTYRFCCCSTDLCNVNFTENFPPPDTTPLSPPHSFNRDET
Description: Radio-ligand receptor binding assay, competition with 125I-labeled TDF-1 for BMPR-2. An excerpt: General protocol: These assays are based on competition between ^125I-labeled TDF-1 (BMP-7 or OP-1) and candidate TDFRP compounds or unlabeled TDF-1 for binding to respective receptors (ALK-3, ALK-6 or BMPR-2). In brief, the procedure involves immobilization of receptor on 96 well Removawell plates, blocking the wells with 3% BSA in PBS and subsequently washing the wells. Increasing concentrations of unlabeled TDF-1 or TDFRP compounds or control (unlabeled TDF-1) prepared in binding buffer are then added. Incubate plate for 1 hour at room temperature, and then add a fixed amount of ^125I-labeled TDF-1 (250,000 to 350,000 cpm) to the wells and further incubate in cold (4° C.) for 20 hours. Aspirate the contents of the wells and wash the wells four times with a wash buffer, and count the receptor bound ^125I-labeled TDF-1 in an auto gamma counter. B. HK-2 Cell Culture and Determination of Cytokine Production

Assay [2] has as its system ICAM-1 in HK2 human transformed kidney proximal tubule cells. Put plainly: ICAM-1 level in HK-2 cell medium after TNF-alpha stimulation (ELISA). It counts as cell-based. The note with it: FIG. 7; for effect on level of ICAM-1 in HK2 cell medium: after TNF-alpha inflammatory stimulation. On the procedure:
The immortalized PTEC-derived HK-2 (Human Kidney-2) cells (ATCC number CRL-2190) were grown in serum-free keratinocyte medium (GIBCO number 17005-042) supplemented with epidermal growth factor (EGF: 5 ng/mL) and bovine pituitary extract (40 ug/mL) for 48 hours as described previously (Ryan et al (1994) Kidney International 45:48-57). Cells were transferred to 24-well plates at a density of 3×10^5 cells per well. After 24 hours, cells were incubated with fresh medium containing TNF-alpha (5 ng/mL) for 20 hours. Controls received medium alone. Then cells were washed twice with fresh culture medium and further incubated with culture medium alone (medium control, and TNF control wells) or TDF-1 at three different concentrations (40, 200 or 1000 ng/mL) or TDFRP compounds at three different concentrations (4, 20 or 100 uM) for sixty hours. During incubation, cells were kept in a 5% CO2 humid atmosphere at 37° C. At the end of the incubation, the media were removed and stored frozen until assayed. The concentrations of IL-6 and sICAM-in culture supernatants were measured by specific ELISA.
Dilute the capture antibody to the working concentration in PBS, pH 7.4 without carrier protein. Add 61 uL of stock antibody (720 ug/mL) to 10.939 mL of PBS, gently vertex. Immediately coat a 96 well microplate (Immulon 4 HBX) with 100 uL per well of the diluted capture antibody. Seal the plate and incubate it overnight in cold (4° C.). (PBS: 8.1 mM Na2HPO4, 1.5 mM KH2PO4, 137 mM NaCl, 2.7 mM KCl, pH 7.4, 0.2 um filtered).
Next day empty the wells and wash the wells three times, each time using 340 uL of wash buffer per well. (wash buffer: PBS, pH 7.4 containing 0.05% Tween-20). Prepare blocking buffer, 35 mL per plate. To prepare blocking buffer, add 0.35 grams of BSA and 1.75 grams of sucrose to 35 mL of PBS, pH 7.4, and mix the contents gently. Add 300 uL of blocking buffer to each well and incubate the plate for a minimum of 1 hour at room temperature. Empty the wells and wash wells three times, each time using 340 uL of wash buffer per well. […]

For a further assay, the system named is Smad1 in HK2 cells. Description: Smad1 accumulation in the nucleus of HK2 cells (Ser-Thr signal transduction). It counts as cell-based, human. The conditions noted are these: fluorescent labeling of Smad-1, FIG. 8, FIG. 9. From the text: Open column is non-inflammation background level of ICAM-1; Black column is the ICAM-1 level following TNF-alpha inflammatory stimulation. […] In the Ser-Thr signaling pathway, the ligand (TDF-1 or TP2.003) bind to both the type 1 receptor (ALK3) and the type 2 receptor (BMPR2) inducing oligomerization of the receptors. The type 2 receptor under goes phosphorylation and then phosphorylates the type 1 receptor, which then phosphorylates one of Smad 1, 5 or 8 (ref. to as Smad1 below). The phosphorylated Smad1 is then picked up by Smad4 and ferried into the nucleus. Thus, detection of the concentration of Smad1 in the nucleus is diagnostic of induction of signal transduction.
Note that in the right hand column, the phase contrast images of the HK2 cells showing close to confluency; the images on the left show fluorescent labeling of Smad-1 in the nucleus of HK2 cells.

Regarding `CC(C)C[C@H](NC(=O)[C@@H](NC(=O)[C@H](CC(N)=O)NC(=O)[C@H](CO)NC(=O)[C@H](CO)NC(=O)[C@H](CC(=O)O)NC(=O)[C@H](CC(=O)O)NC(=O)[C@H](Cc1ccccc1)NC(=O)[C@H](Cc1ccc(O)cc1)NC(=O)[C@@H](N)CS)C(C)C)C(=O)N[C@@H](CS)C(=O)N[C@@H](CCCCN)C(=O)N[C@@H](CCCCN)C(=O)N[C@@H](Cc1ccc(O)cc1)C(=O)N[C@@H](CCCNC(=N)N)C(=O)N[C@@H](CO)C(=O)O` [SEQ ID NO:45, CYFDDSSNVLCKKYRS] (H-CYFDDSSNVLCKKYRS-OH), the “specific binding to BMPR-2 / inhibition of specific binding of labeled TDF-1 to BMPR-2 receptor” value in assay [1] (competitive binding, FIG. 4) is “specifically binds and does”. Besides, the EC50 in assay [2] (HK2 cells, TNF-alpha stimulus, read-out: ED50, lowering of ICAM-1 level) is < 4 µM. Further, in assay [2], the “effect on level of ICAM-1 in HK2 cell medium” value was “reduces the level of cellular inflammation marker ICAM-1; also recorded: lowers the level of ICAM-1 in a dose dependent manner”. Besides, in the assay on Smad1 in HK2 cells, the “Smad1 accumulation in the nucleus / induction of Ser-Thr signal transduction” value is on record as “induces Ser-Thr signal transduction; also recorded: dose dependent response of Smad1 accumulation in the nucleus”.

B1: TDF-1: TDF-1 (BMP-7 or OP-1), bone morphogenetic protein-7; unlabeled control ligand in the binding and cell assays (protein)
chain: STGSKQRSQNRSKTPKNQEALRMANVAENSSSDQRQACKKHELYVSFRDLGWQDWIIAPEGYAAYYCEGECAFPLNSYMNATNHAIVQTLVHFINPETVPKPCCAPTQLNAISVLYFDDSSNVILKKYRNMVVRACGCH
Consider B1, for which the EC50 in assay [1] (FIG. 3, read-out: ED50, displacing labeled TDF-1 from immobilized BMPR-2 receptor ECD) turned out to be 6.3 nM. Besides, the “effect on level of ICAM-1 in HK2 cell medium” value in assay [2] is given as “lowers the level of ICAM-1 in a dose dependent manner”. In the assay with Smad1 in HK2 cells, the “Smad1 accumulation in the nucleus / induction of Ser-Thr signal transduction” value is “induces Ser-Thr signal transduction; also recorded: dose dependent response of Smad1 accumulation in the nucleus”.
